Key:
Assay in all cases: CYP inhibition, cocktail-substrate method in HLM
Assay type in all cases: in vitro ADME
CYP 2A6 = molecular target: T1, CYP 2A6 (Homo sapiens, UniProt P11509); settings: probe coumarin
T1 construct: 0.5 mg/mL HLM, 1 mmol/L NADPH, and a cocktail of 10 probe substrates for 9 CYP isoforms; tissue BD (Woburn, USA); host or cells: pooled human liver microsomes
T1 sequence (P11509 1-494): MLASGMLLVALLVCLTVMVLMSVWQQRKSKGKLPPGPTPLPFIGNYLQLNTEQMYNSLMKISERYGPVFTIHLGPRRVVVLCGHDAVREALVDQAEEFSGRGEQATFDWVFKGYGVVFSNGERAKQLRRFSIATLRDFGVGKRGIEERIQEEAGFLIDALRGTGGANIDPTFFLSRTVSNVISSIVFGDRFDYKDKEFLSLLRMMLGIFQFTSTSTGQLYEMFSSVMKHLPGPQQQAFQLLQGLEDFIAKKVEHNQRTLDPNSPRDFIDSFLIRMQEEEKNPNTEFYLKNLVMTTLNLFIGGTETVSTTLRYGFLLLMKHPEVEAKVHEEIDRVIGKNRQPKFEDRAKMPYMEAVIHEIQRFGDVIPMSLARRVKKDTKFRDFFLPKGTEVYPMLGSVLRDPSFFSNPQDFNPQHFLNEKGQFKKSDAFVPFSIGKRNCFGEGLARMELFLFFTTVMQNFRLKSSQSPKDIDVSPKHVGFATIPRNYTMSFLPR
Description: (§1) To assess the CYP inhibition profiling of ammoxetine, a high-throughput assay based on the cocktail-substrate method was performed, as described in the literature ([Kim et al., 2005]; [Kozakai et al., 2014]). Microsomal incubations were conducted in triplicate for 30 min at 37°C in a reaction system (200 μL) consisting of […] potassium phosphate buffer (pH 7.4), 0.5 mg/mL HLM, 1 mmol/L NADPH, and a cocktail of 10 probe substrates for 9 CYP isoforms. The final concentration of each CYP-specific substrate was chosen to be close to the Michaelis-Menten constant (K m ) value of the respective substrate ([Kim et al., 2005]; [Lee et al., 2024]). For instance, phenacetin (CYP 1A2) was used at a concentration of 50 μmol/L, coumarin (CYP 2A6) at 5 μmol/L, bupropion (CYP 2B6) at 50 μmol/L, amodiaquine (CYP 2C8) at 5 μmol/L, tolbutamide (CYP 2C9) at 100 μmol/L, S-mephenytoin (CYP 2C19) at 100 μmol/L, dextromethorphan (CYP 2D6) at 5 μmol/L, chlorzoxazone (CYP 2E1) at 50 μmol/L, and testosterone and midazolam (CYP 3A4) at 50 μmol/L. Ammoxetine was evaluated at five concentrations: 0.1, 1, 10, 50, and 100 μmol/L. Additionally, a blank control without ammoxetine was included. The incubation was terminated by adding an equal volume of ice-cold acetonitrile/methanol (1:1, v/v) along with the IS, dexmedetomidine (1 ng/mL). After a 20-fold dilution, the mixture was centrifuged at 13,800×g for 10 min at 4°C. The supernatants were used to measure the levels of metabolites from the respective probe substrates using an LC-MS-MS method. The half-maximal inhibitory concentration (IC50) values were subsequently calculated.

CYP 2C8 = molecular target: T2, CYP 2C8 (Homo sapiens, UniProt P10632); settings: probe amodiaquine
T2 construct: 0.5 mg/mL HLM, 1 mmol/L NADPH, and a cocktail of 10 probe substrates for 9 CYP isoforms; tissue BD (Woburn, USA); host or cells: pooled human liver microsomes
T2 sequence (P10632 1-490): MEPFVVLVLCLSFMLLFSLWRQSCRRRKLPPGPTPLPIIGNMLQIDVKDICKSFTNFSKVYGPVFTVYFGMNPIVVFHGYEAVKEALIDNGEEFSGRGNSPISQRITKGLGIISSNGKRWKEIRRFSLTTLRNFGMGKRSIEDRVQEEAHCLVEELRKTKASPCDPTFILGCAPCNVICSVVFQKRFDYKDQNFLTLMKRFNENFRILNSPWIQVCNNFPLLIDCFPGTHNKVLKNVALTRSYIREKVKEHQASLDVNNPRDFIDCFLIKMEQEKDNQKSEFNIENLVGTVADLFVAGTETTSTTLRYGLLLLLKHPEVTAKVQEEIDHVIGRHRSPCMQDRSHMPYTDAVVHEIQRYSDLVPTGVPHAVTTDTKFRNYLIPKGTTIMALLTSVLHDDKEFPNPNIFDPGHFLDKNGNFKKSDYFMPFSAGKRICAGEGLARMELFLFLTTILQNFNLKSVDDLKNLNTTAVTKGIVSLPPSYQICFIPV
Description: as §1

CYP 2E1 = molecular target: T3, CYP 2E1 (Homo sapiens, UniProt P05181); settings: probe chlorzoxazone
T3 construct: 0.5 mg/mL HLM, 1 mmol/L NADPH, and a cocktail of 10 probe substrates for 9 CYP isoforms; tissue BD (Woburn, USA); host or cells: pooled human liver microsomes
T3 sequence (P05181 whole entry, canonical isoform): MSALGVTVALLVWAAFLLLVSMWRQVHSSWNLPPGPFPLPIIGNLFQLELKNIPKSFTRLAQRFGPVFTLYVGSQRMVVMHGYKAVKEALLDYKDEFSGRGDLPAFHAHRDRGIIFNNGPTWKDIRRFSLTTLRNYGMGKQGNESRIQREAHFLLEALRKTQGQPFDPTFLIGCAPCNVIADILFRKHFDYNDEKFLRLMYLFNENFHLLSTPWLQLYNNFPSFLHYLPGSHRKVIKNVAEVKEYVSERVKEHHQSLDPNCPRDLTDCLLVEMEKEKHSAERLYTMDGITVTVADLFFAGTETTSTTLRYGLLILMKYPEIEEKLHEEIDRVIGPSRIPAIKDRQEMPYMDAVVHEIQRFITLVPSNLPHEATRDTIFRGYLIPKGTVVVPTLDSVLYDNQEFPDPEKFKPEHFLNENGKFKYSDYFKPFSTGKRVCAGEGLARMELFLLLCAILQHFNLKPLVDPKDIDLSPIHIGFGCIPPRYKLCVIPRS
Description: as §1

CYP 2B6 = molecular target: T4, CYP 2B6 (Homo sapiens, UniProt P20813); settings: probe bupropion
T4 construct: 0.5 mg/mL HLM, 1 mmol/L NADPH, and a cocktail of 10 probe substrates for 9 CYP isoforms; tissue BD (Woburn, USA); host or cells: pooled human liver microsomes
T4 sequence (P20813 1-491): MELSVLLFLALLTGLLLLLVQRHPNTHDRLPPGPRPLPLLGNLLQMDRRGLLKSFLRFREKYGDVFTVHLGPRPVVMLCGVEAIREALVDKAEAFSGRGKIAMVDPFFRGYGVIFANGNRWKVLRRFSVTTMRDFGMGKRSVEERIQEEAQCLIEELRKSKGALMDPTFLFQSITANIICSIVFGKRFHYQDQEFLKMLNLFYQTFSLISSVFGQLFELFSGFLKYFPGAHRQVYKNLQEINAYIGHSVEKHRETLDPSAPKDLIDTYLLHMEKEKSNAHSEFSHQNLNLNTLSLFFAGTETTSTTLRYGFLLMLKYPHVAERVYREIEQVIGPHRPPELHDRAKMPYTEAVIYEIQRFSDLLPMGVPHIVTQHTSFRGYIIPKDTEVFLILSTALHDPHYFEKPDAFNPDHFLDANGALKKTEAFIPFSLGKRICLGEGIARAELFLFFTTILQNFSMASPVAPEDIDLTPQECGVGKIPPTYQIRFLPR
Description: as §1

Measured: IC50

CNCC[C@H](Oc1cccc2c1OCO2)c1cccs1 [ammoxetine]
> 100 µM: all assays above

Source: article PMC11579541, “In vitro, in vivo, and in silico approaches for evaluating the preclinical DMPK profiles of ammoxetine, a novel chiral serotonin and norepinephrine reuptake inhibitor” (Frontiers in Pharmacology, 2024)
